Read-outs that look alike come from different tables or passages of the source.

Consider three compounds from patent US6486310B1, “Gene encoding the rat dopamine D4 receptor” (Washington University, priority 1993, dated 2002).

Assay [1] relates to D2A444 transfected MN9D cells. Briefly: Neurite morphology of D2A444 transfected MN9D cells. As to conditions: 1 μM eticlopride co-cultured with 2 μM quinpirole.
In assay [2] the test system is D4 transfected MN9D cells. Kind of assay: Neurite morphology of D4 transfected MN9D cells. As to conditions: 1 μM eticlopride co-cultured with 2 μM quinpirole.
The next assay deals with T1, rat D4 receptor (Rattus norvegicus, UniProt P30729).
T1 sequence (P30729 1-387): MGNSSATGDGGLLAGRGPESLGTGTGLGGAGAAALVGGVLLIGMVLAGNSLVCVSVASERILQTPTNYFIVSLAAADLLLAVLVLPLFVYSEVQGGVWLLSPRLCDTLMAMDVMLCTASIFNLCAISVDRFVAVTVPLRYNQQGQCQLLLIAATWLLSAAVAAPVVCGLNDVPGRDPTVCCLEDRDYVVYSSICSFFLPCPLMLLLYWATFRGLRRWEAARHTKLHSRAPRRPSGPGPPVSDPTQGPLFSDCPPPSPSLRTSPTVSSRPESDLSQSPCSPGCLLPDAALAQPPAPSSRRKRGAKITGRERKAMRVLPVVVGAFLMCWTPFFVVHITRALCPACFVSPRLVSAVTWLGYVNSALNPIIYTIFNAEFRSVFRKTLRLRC
Kind of assay: biochemical. An excerpt:
FIG. 4 is a pharmacological analysis of transfected rat D2444 and D4 receptors and human D3 receptors in CCL1.3 cells. […] FIG. 4B is a graph of [^3H]-spiperone (%) versus log [(+)butaclamol, M]. […] The rat D4 gene, the rat D2444 cDNA and the human D3 cDNA were inserted into the expression vector pcDNA/neo and transfected into CCL1.3 cells. […] Open circles, D4-expressing cells; closed circles, D2444-expressing cells, triangles, D3-expressing cells. Results are shown as mean±SD of percent of specifically bound [^3H]spiperone remaining for an experiment done in triplicate.
Mouse fibroblasts expressing D2A444 and D4 were grown to 70% confluence and then harvested by scraping. After they had been washed twice in PBS, the cell pellets were resuspended in distilled water and ruptured by homogenization with a Brinkman Polytron, at setting 6 for 10 sec. Nuclei were removed by centrifugation for 5 min at 600 g. Membranes were pelleted by centrifugation for 25 min at 50,000 g. The pellets were resuspended in water and frozen at −70° C. until assayed. For receptor binding assays, samples containing 150 μg of membrane protein were aliquoted into glass test tubes. [^3H]-Spiperone (1 nm) and varying concentrations of competing compounds were added in a final volume of 1 ml and a final buffer of 1.5 Mm CaCl2, 5 mM MgCl2, 5 mM KCl, 120 mM NaCl, 50 mM Tris-HCl, pH 7.4 at 20° C. The tubes were incubated for 15 min at 37° C., and the assays were terminated by addition of 5 ml of ice-cold 50 Mm Tris-HCl buffer (pH 6.9), collected onto glass-fiber filters, and washed twice with the same cold buffer in a modified Brandel cell harvester.
Transfected cells were enriched by expansion in medium containing G418. The rat D2 cDNA and the human D3 cDNA were expressed in the same cell line.

Assay [3] deals with D3 transfected MN9D cells. Kind of assay: Neurite morphology of D3 transfected MN9D cells. As to conditions: 1 μM eticlopride co-cultured with 2 μM quinpirole.
Assay [4] deals with tyrosine hydroxylase expressing cells from E15 rat mesencephalon. Kind of assay: Morphology of tyrosine hydroxylase positive cells in primary E15 mesencephalon cultures. As to conditions: 2 μM quinpirole, 90 hours, high density culture. The assay is classed as cell-based. An excerpt:
Cultures were then fixed and dopamine synthesizing cells identified by tyrosine hydroxylase immunoreactivity. […] There are five TH positive cells in the control condition and three TH positive cells in the quinpirole condition.

Take `CCc1cc(Cl)c(OC)c(C(=O)NC[C@@H]2CCCN2CC)c1O` [eticlopride]: the “block of the effects of quinpirole stimulation” value in assay [1], in assay [2] and in assay [3] was “can be blocked” each time. For the same compound, the Ki was found to be 22.3 ± 1.9 nM on rat D4 receptor (Ki (D4)) and 27 ± 2.9 nM on rat D4 receptor (apparent Ki, D4 receptor).

As to `CCCN1CCC[C@@H]2Cc3n[nH]cc3C[C@H]21` [quinpirole], in assay [4], the “morphology of TH positive cells versus control (in words)” value was “larger, have more branch points and much more extensive growth cone elaboration”.

Turning to (+)butaclamol [(+) butaclamal], the Ki at rat D4 receptor (read-out: apparent Ki, D4 receptor, transfected CCL1.3 cells, competition of 1 nM [3H]spiperone, mean±SEM) is 51.3 ± 17.5 nM.
